Data taken from article PMC9169360, “Molecular Imaging-Derived Biomarker of Cardiac Nerve Integrity — Introducing High NET Affinity PET Probe ^18F-AF78” (Theranostics, 2022).
Like-named read-outs stand apart in the source and are kept apart here.

Key:
[1] = biological target: T1, norepinephrine transporter (NET) (Homo sapiens, UniProt P23975); assay: Competitive cell uptake assay against 3H-norepinephrine in SK-N-SH human neuroblastoma cells; assay type: cell-based
T1 construct: cells naturally expressing NET; host or cells: SK-N-SH human neuroblastoma cells
Text: SK-N-SH (human neuroblastoma cell line) cells naturally expressing NET were cultivated according to the instructions from the supplier (Sigma-Aldrich Chemie GmbH, Taufkirchen, Germany). […] Cell lysates were collected and measured in a liquid scintillation analyzer.

[2] = parameters: method as in PMID 28322043; details: rhesus macaque monkeys, not before 90 min after radiotracer injection; cited from earlier work
[3] = biological target: T2, norepinephrine transporter (NET) (Rattus norvegicus, UniProt Q63380); assay: PET imaging and biodistribution in rats with or without PhB blocking; assay type: in vivo, Wistar rats
T2 construct: from tissue; host or cells: heart of living Wistar rats (in vivo PET, ex vivo tissue counting)
Experimental: (§1) Male Wistar rats (n = 4, weighing 250-400 g) and New Zealand white rabbits (n = 5, weighing 3.2-3.6 kg) were used for cardiac uptake studies. Anesthesia was induced and maintained during the experiment by 2% isoflurane. Large animal PET studies were performed on cynomolgus monkeys (n = 4, weighing 3.9-4.2 kg). Induction of anesthesia in NHPs was conducted by intramuscular injection of ketamine (1.5 mg/kg) and xylazine (0.6 mg/kg) to allow the preparation and handling of the animals. After a tracheal cannula was inserted, 1.5% sevoflurane (SEVOFLURANE Inhalation Solution, Pfizer Japan Inc., Tokyo, Japan) vaporized with 100% oxygen was inhaled, and the tidal volume and respiratory rate of the ventilator were monitored and kept in the normal range throughout the imaging sessions with an anesthesia workstation (Apollo®, Drägerwerk AG & Co. KGaA, Lübeck, Germany).
A small-animal PET system (microPET FOCUS 120, Siemens, Erlangen, Germany) was used for the rat studies. […] The organ-to-blood ratios were calculated following weight and decay correction of tissue counts.
PET imaging for rats, rabbits and NHPs was performed from the chest to the upper abdomen, including the heart, lungs, liver and part of the intestines. The reconstructed images were analyzed using AMIDE imaging software (version 1.0.1). […]

[4] = biological target: T3, norepinephrine transporter (NET) (Oryctolagus cuniculus, UniProt G1TDF9); assay: PET imaging and cardiac uptake in rabbits with or without DMI blocking; assay type: in vivo, New Zealand white rabbits; details: DMI 1.5 mg/kg 10 min before tracer, SUV, n = 5
T3 construct: from tissue; host or cells: heart of living New Zealand white rabbits (in vivo PET, gamma counting)
Experimental: as §1
^18F-AF78 (3-4 MBq) and ^123I-MIBG (approximately 2.5 MBq) were injected into rabbits maintained under anesthesia via the marginal ear vein in a single dose. The NET blocker DMI (1.5 mg/kg) was injected 10 min before radiotracer administration in the blocking study. A 10-min dynamic scan was initiated immediately after the radiotracer injection. The animals were euthanized immediately after the scan, and the organs of interest were harvested and measured in a gamma counter to calculate biodistribution. […]

[5] = Dynamic PET imaging and biodistribution of the radiotracer in healthy nonhuman primates; assay type: in vivo, cynomolgus monkeys; details: NHP controls
Experimental: as §1
NHPs were maintained under anesthesia during imaging and were studied with a PET scanner (PCA-2000A, Toshiba Medical Systems Corporation, Tochigi, Japan). After a 5-min transmission scan and a bolus intravenous (i.v.) injection of the radiotracer ^18F-AF78 (approximately 20 MBq) via the saphenous vein, a 60-min dynamic PET scan (10 s × 12, 30 s × 6, and 300 s × 11) was initiated. For the blocking study, DMI was injected 10 min before radiotracer administration, after which the PET scan commenced immediately (n = 4). For the DMI chase study, DMI (1 mg/kg, n = 4) was injected 10 min after radiotracer administration, while the PET scan was initiated simultaneously with radiotracer administration. The catecholamine releasing stimulator tyramine (TYR) was also used in a chase protocol, with 50 µg/kg each injection (n = 4) injected intermittently (5 times, 10-min intervals) after radiotracer administration. The radiotracers ^18F-AF78 and ^123I-MIBG were formulated in saline for the animal studies. Control animals received normal saline. The inhibitors PhB, DMI and TYR were first dissolved in a minimum amount of DMSO and diluted with saline for administration with a final concentration of DMSO lower than 10%. The experimental timeline is provided in the supplementary material.
(§2) PET imaging for rats, rabbits and NHPs was performed from the chest to the upper abdomen, including the heart, lungs, liver and part of the intestines. The reconstructed images were analyzed using AMIDE imaging software (version 1.0.1). For kinetic studies in rats and NHPs, the tissue uptake was determined as standardized uptake values (SUVs), from which time-activity curves of different organs, e.g., heart, blood, lung and liver, were generated with transmission computed tomography images for topographic localization.

[6] = system: norepinephrine transporter (NET); assay: PET kinetic studies in nonhuman primates with DMI blocking, DMI chase and tyramine chase; assay type: in vivo, cynomolgus monkeys; details: NHP heart, 60 min
Experimental: as §1
NHPs were maintained under anesthesia during imaging and were studied with a PET scanner (PCA-2000A, Toshiba Medical Systems Corporation, Tochigi, Japan). After a 5-min transmission scan and a bolus intravenous (i.v.) injection of the radiotracer ^18F-AF78 (approximately 20 MBq) via the saphenous vein, a 60-min dynamic PET scan (10 s × 12, 30 s × 6, and 300 s × 11) was initiated. For the blocking study, DMI was injected 10 min before radiotracer administration, after which the PET scan commenced immediately (n = 4). For the DMI chase study, DMI (1 mg/kg, n = 4) was injected 10 min after radiotracer administration, while the PET scan was initiated simultaneously with radiotracer administration. […]
as §2

[7] = SK-N-SH cells, 60 min, 37 °C, mean ± SD, n = 4, read-out: IC50, competitive cell uptake affinity against 3H-NE

T1 sequence (P23975 whole entry): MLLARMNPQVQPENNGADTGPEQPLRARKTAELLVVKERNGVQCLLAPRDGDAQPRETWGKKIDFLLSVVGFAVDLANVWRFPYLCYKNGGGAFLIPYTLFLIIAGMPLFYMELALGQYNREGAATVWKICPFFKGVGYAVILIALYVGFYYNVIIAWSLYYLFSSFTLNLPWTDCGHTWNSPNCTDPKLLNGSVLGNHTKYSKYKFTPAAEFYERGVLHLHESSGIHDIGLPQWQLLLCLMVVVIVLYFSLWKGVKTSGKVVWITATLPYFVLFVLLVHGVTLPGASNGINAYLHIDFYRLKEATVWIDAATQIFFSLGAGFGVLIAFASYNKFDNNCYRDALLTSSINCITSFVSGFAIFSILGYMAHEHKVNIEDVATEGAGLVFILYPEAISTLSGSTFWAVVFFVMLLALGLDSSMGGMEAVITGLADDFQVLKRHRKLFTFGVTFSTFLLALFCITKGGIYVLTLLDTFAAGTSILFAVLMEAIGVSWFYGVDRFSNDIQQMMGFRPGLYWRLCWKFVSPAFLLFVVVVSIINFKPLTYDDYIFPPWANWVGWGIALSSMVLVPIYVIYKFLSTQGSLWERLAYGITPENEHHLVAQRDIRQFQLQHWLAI
T2 sequence (Q63380 1-617): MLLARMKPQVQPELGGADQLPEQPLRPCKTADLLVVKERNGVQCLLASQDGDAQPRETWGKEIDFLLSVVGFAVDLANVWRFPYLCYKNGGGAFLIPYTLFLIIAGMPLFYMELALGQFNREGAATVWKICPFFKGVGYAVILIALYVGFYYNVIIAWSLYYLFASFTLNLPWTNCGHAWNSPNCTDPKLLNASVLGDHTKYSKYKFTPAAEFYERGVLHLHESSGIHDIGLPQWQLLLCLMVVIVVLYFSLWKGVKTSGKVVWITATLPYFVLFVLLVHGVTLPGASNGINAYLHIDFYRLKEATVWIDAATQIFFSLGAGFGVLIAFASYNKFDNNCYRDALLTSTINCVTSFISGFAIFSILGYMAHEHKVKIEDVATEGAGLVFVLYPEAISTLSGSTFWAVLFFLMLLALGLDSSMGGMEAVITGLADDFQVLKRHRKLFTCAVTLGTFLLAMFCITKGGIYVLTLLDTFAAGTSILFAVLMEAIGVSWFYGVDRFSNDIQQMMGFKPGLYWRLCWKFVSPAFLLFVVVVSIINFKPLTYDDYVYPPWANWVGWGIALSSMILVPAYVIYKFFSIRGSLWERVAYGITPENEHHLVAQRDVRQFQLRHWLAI
T3 sequence (G1TDF9 1-617): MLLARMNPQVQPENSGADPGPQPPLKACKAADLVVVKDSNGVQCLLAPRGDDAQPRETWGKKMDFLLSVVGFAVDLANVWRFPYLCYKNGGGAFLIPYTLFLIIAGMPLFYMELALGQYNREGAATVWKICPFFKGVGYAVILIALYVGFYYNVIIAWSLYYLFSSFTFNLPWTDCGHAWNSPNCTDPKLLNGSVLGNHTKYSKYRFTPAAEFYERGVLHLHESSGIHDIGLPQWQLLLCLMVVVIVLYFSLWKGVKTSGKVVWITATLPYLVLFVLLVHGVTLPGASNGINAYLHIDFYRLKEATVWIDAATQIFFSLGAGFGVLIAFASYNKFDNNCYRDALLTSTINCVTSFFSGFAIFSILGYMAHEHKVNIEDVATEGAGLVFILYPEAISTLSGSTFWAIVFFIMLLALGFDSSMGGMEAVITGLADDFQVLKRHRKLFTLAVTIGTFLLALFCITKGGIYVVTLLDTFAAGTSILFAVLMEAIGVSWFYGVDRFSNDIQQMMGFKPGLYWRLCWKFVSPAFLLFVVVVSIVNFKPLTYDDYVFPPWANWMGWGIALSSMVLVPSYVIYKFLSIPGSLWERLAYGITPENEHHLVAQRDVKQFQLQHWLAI

For `N=C(N)NCCc1ccc(O)c(F)c1` [3F-PHPG, 3-fluoro-4-hydroxyphenethylguanidine], the IC50 [1, 7] is listed as 0.78 ± 0.06 µM and the heart-to-liver ratio [2] is listed as 2.5 ± 0.3.

For `N=C(N)NCCc1ccc(F)c(O)c1` [4F-MHPG, 4-fluoro-3-hydroxyphenethylguanidine], the IC50 [1, 7] is given as 2.78 ± 1.22 µM and the heart-to-liver ratio [2] is given as 2.2 ± 0.8.

`NCCc1cc(O)c(O)cc1F` [6F-DA, 6-fluorodopamine] gave an IC50 [1] of 1.2 ± 0.33 µM.

With `N=C(N)NCCc1ccc(OCCCF)c(F)c1` [AF78, 1-(3-fluoro-4-(3-fluoropropoxy)phenethyl)guanidine] the IC50 [1, 7] was 0.42 ± 0.14 µM, the “fold higher affinity of AF78 relative to MIBG” value ([1]; ratio of IC50 values, SK-N-SH cells) was 4.2 fold and the “cardiac uptake upon PhB pretreatment” value ([3]; PhB 50 mg/kg 10 min before tracer, time-activity curves) was “decreased rapidly”. For the same molecule, the “organ-to-blood ratios, early (10 min) versus late (60 min) phase” value ([3]; biodistribution study, controls) was “unchanged”, the “cardiac uptake in the DMI pretreatment group” value [4] was “reduced significantly” and the heart-to-blood pool ratio ([5]; 5 min postinjection) was 2.03 ± 0.53. The heart-to-liver ratio ([5]; 5 min postinjection) was 0.38 ± 0.29, the heart-to-liver ratio ([5]; 30 min postinjection) was 0.95 ± 0.20 and the “absolute SUV in the blood pool” value ([5]; 60 min postinjection) was 0.72 ± 0.34 SUV. For the same molecule, the “absolute SUV in the liver” value ([5]; 60 min postinjection) was 0.91 ± 0.47 SUV, the heart-to-blood pool ratio ([5]; 60 min postinjection) was 1.82 ± 0.71 and the heart-to-liver ratio ([5]; 60 min postinjection) was 1.60 ± 0.38. The “cardiac SUV” value ([5]; heart, 5 min postinjection) was 1.74 ± 0.24 SUV, the “cardiac uptake, mean SUV” value ([5]; heart, 60 min postinjection) was 1.46 ± 0.18 SUV and the “cardiac mean SUV after DMI chase” value ([6]; DMI 1 mg/kg 10 min after tracer) was 1.40 ± 0.07 SUV. The “cardiac mean SUV after DMI blocking” value ([6]; DMI injected 10 min before tracer) was 0.45 ± 0.05 SUV and the “cardiac mean SUV after intermittent TYR chase” value ([6]; tyramine 50 µg/kg 5 times at 10-min intervals) was 0.92 ± 0.20 SUV.

With `N=C(N)NCc1ccc(OCCCF)c(Br)c1` [FBBG, flubrobenguane] the IC50 [1, 7] was 2.28 ± 1.05 µM.

For `CN[C@@H](C)[C@H](O)c1cccc(O)c1` [HED, metahydroxyephedrine], the IC50 [1] was 0.39 ± 0.11 µM.

For `N=C(N)NCc1cccc(I)c1` [MIBG, metaiodobenzylguanidine, reference compound], the IC50 [1, 7] was 1.75 ± 0.47 µM and the “cardiac uptake in the DMI pretreatment group” value [4] was “reduced significantly”.
